Experimental data: patent US11110138B2 (priority 2012, dated 2021)

Experiment: in vitro
Settings: African green monkey

For `CS(=O)(=O)OCCCCOS(C)(=O)=O` [busulfan], the viability was about 82%.
